The text below walks through data of US10934286B2, “Heterocyclic sulfones as ROR gamma modulators” (BRISTOL-MYERS SQUIBB COMPANY, priority 2016, dated 2021).

pIC50: −log10 of the molar value. Structures can show the parent of a compound that is named as a salt.

The target in this test is T1, RORγ receptor (Homo sapiens, UniProt P51449).
T1 construct: Jurkat pEx/Gal/hRORγ CLBD/HYG pG51uc/blast; expressed in transfected cells
T1 sequence (P51449 269-508 limits assumed): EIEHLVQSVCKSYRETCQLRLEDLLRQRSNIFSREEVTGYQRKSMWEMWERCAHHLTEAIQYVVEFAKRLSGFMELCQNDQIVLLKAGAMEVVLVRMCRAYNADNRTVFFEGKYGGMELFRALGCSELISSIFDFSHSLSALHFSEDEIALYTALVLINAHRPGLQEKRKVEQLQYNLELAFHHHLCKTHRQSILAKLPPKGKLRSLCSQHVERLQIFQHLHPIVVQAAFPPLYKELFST
Description: General RORγ Gal4 reporter assay (inverse agonist activity, inhibition of luminescence). It is filed as cell-based. To be noted: Gal4-luciferase reporter in Jurkat cells stably over-expressing hRORγ LBD; overnight incubation; 40 μM to 0.67 nM. The protocol:
General RORγ Gal4 Reporter Assay Inverse agonist activity of potential ligands to RORγ was measured by inhibition of luminescence in a Gal4-luciferase reporter assay in Jurkat cells.
The following day, cells were lysed with 10 μL of Steady-Glo Luciferase Assay System (Promega Cat. No. EZ550), and analyzed immediately. IC50 values were determined.
In general terms: Reporter assays use an easily measured gene product as a stand-in for the process of interest.
As usually defined, the pIC50 is −log10 of the IC50, conventionally taken in molar units. Low values mean a large IC50, high ones a small IC50. `CC(C)(O)CN1C(=O)[C@H](F)C[C@H]1C(=O)N1CCC2(S(=O)(=O)c3ccc(F)cc3)c3cnc(C(F)(C(F)(F)F)C(F)(F)F)cc3CCC12` (stereo partly drawn) [Example 47] had a pIC50 of 7.54.
With `O=C(O)[C@H]1CC[C@H](C(=O)N2CCC3(S(=O)(=O)c4ccc(F)cc4)c4ncc(C(F)(C(F)(F)F)C(F)(F)F)cc4CCC23)CC1` (stereo partly drawn) [Example 4], the negative logarithm of the IC50 (pIC50) was 6.79.
Regarding `CC(C)(O)CN1C(=O)[C@H](F)C[C@H]1C(=O)N1CCC2(S(=O)(=O)c3ccc(F)cc3)c3ccc(C(F)(C(F)(F)F)C(F)(F)F)nc3CCC12` (single isomer, unassigned) [Example 43], the negative-log IC50 (pIC50) was 7.51.
Turning to `O=C(N1CCC2(S(=O)(=O)c3ccccc3)c3ccc(OCc4c(Cl)cccc4Cl)nc3CCC12)C(F)(F)F` (single isomer, unassigned) [Example 62], the negative-log IC50 (pIC50) was 5.61. Against the preceding molecule, the pIC50 is 1.90 log units lower.
Under `O=C1N[C@H](C(=O)N2CCC3(S(=O)(=O)c4cccc(F)c4)c4ccc(C(F)(C(F)(F)F)C(F)(F)F)nc4CCC23)[C@H]2C[C@@H]12` (single isomer, unassigned) [Example 34, trifluoroacetate] stands 7.21; under `O=C(O)[C@H]1CC[C@H](C(=O)N2CCC3(S(=O)(=O)c4ccc(F)cc4)c4ccc(OCc5c(Cl)cccc5Cl)nc4CCC23)CC1` (stereo partly drawn) [Example 40], 7.92.
For the molecule `N#CCCN1C(=O)CC[C@H]1C(=O)N1CCC2(S(=O)(=O)c3ccc(F)cc3)c3ccc(C(F)(C(F)(F)F)C(F)(F)F)nc3CCC12` (single isomer, unassigned) [Example 42], the negative logarithm of the IC50 (pIC50) was 7.37.
Turning to `O=C(CC1(O)CCS(=O)(=O)C1)N1CCC2(S(=O)(=O)c3ccc(F)cc3)c3ccc(C(F)(C(F)(F)F)C(F)(F)F)nc3CCC12` (stereo not drawn) [Example 10], the negative logarithm of the IC50 (pIC50) was 7.48.
`O=C(O)C1CC2(C1)CC(C(=O)N1CCC3(S(=O)(=O)c4ccc(F)cc4)c4ncc(C(F)(C(F)(F)F)C(F)(F)F)cc4CCC13)C2` (stereo not drawn) [Example 9] gave a pIC50 of 7.06.
For `CC(C)(CO)CN1C(=O)[C@H](F)C[C@H]1C(=O)N1CCC2(S(=O)(=O)c3cccc(F)c3)c3ccc(C(F)(C(F)(F)F)C(F)(F)F)nc3CCC12` (stereo partly drawn) [Example 37], the pIC50 is 8.05.
The molecule `O=C(C1CCS(=O)(=O)CC1)N1CCC2(S(=O)(=O)c3ccccc3)c3ccc(C(F)(C(F)(F)F)C(F)(F)F)nc3CCC12` (stereo not drawn) [Example 12] showed a negative logarithm of the IC50 (pIC50) of 8.05.
Molecule `CC(C)(O)CN1C(=O)[C@H](F)C[C@@H]1C(=O)N1CCC2(S(=O)(=O)c3cccc(F)c3)c3ccc(C(F)(C(F)(F)F)C(F)(F)F)nc3CCC12` (stereo partly drawn) [Example 46] had a pIC50 of 6.39. This pIC50 lies 1.66 log units lower than the previous one.
In turn, `O=C(O)[C@H]1CC[C@H](C(=O)N2CCC3(S(=O)(=O)c4cccc(F)c4)c4cnc(C(F)(C(F)(F)F)C(F)(F)F)cc4CCC23)CC1` (stereo partly drawn) [Example 26] showed a pIC50 of 7.89.
Molecule `[2H]C([2H])([2H])N1C(=O)[C@H](F)C[C@H]1C(=O)N1CCC2(S(=O)(=O)c3cccc(F)c3)c3cnc(C(F)(C(F)(F)F)C(F)(F)F)cc3CCC12` (stereo partly drawn) [Example 65] showed a pIC50 of 7.04.
On to `NC(=O)[C@H]1CC[C@H](C(=O)N2CCC3(S(=O)(=O)c4ccc(F)cc4)c4ncc(C(F)(C(F)(F)F)C(F)(F)F)cc4CCC23)CC1` (stereo partly drawn) [Example 5], for which the negative-log IC50 (pIC50) is 7.11. This pIC50 and that of the molecule before are within 0.2 log units of each other.
As to `[2H]C([2H])([2H])N1C(=O)[C@H](F)C[C@H]1C(=O)N1CCC2(S(=O)(=O)c3ccccc3)c3ccc(C(F)(C(F)(F)F)C(F)(F)F)nc3CCC12` (stereo partly drawn) [Example 66], the negative-log IC50 (pIC50) is 7.51.
`[2H]C([2H])([2H])N1C(=O)[C@H](F)C[C@H]1C(=O)N1CCC2(S(=O)(=O)c3ccc(F)cc3)c3ccc(C(F)(C(F)(F)F)C(F)(F)F)nc3CCC12` (stereo partly drawn) [Example 64]: the negative logarithm of the IC50 (pIC50) is 7.62.
The molecule `O=C(O)[C@H]1CC[C@H](C(=O)N2CCC3(S(=O)(=O)c4ccccc4)c4ccc(C(F)(C(F)(F)F)C(F)(F)F)nc4CCC23)CC1` (stereo partly drawn) [Example 28] had a negative logarithm of the IC50 (pIC50) of 8.10.
The molecule `C[C@H]1C[C@H](C(=O)O)CC[C@H]1C(=O)N1CCC2(S(=O)(=O)c3cccc(F)c3)c3ccc(C(F)(C(F)(F)F)C(F)(F)F)nc3CCC12` (stereo partly drawn) [Example 25] had a pIC50 of 7.92.
As for `C[C@H]1C[C@H](C(=O)O)CC[C@H]1C(=O)N1CCC2(S(=O)(=O)c3ccccc3)c3ccc(C(F)(C(F)(F)F)C(F)(F)F)nc3CCC12` (stereo partly drawn) [Example 29], the negative logarithm of the IC50 (pIC50) is 7.89.
`O=C(N1CCC2(S(=O)(=O)c3ccccc3)c3ccc(OCc4c(Cl)cccc4Cl)nc3CCC12)C(F)(F)F` (single isomer, unassigned) [Example 61] showed a pIC50 of 6.10. This pIC50 lies 1.79 log units lower than the previous one.
Take `CC(C)(O)CN1C(=O)[C@@H]2C[C@@H]2[C@H]1C(=O)N1CCC2(S(=O)(=O)c3cccc(F)c3)c3cnc(C(F)(C(F)(F)F)C(F)(F)F)cc3CCC12` (single isomer, unassigned) [Example 51]: the negative-log IC50 (pIC50) was 7.66.
To `O=C(O)C12CCC(C(=O)N3CCC4(S(=O)(=O)c5ccccc5)c5ccc(C(F)(C(F)(F)F)C(F)(F)F)nc5CCC34)(CC1)CC2` (stereo not drawn) [Example 16] belongs 8.22; to `CC(C)(O)CN1C(=O)CCN1C(=O)N1CCC2(S(=O)(=O)c3cccc(F)c3)c3ccc(C(F)(C(F)(F)F)C(F)(F)F)nc3CCC12` (stereo not drawn) [Example 56], 7.55.
In the case of `O=C(O)C12CCC(C(=O)N3CCC4(S(=O)(=O)c5ccc(F)cc5)c5ncc(C(F)(C(F)(F)F)C(F)(F)F)cc5CCC34)(CC1)CC2` (stereo not drawn) [Example 6], the pIC50 was 7.27.
With `CC(C)(O)CN1C(=O)[C@H](F)C[C@@H]1C(=O)N1CCC2(S(=O)(=O)c3ccc(F)cc3)c3cnc(C(F)(C(F)(F)F)C(F)(F)F)cc3CCC12` (stereo partly drawn) [Example 45], the pIC50 is 6.28.
`O=C(C1CCS(=O)(=O)CC1)N1CCC2(S(=O)(=O)c3ccc(F)cc3)c3ncc(C(F)(C(F)(F)F)C(F)(F)F)cc3CCC12` (stereo not drawn) [Example 8] had a pIC50 of 7.04.
`O=C(C1CCS(=O)(=O)CC1)N1CCC2(S(=O)(=O)c3cccc(F)c3)c3ccc(C(F)(C(F)(F)F)C(F)(F)F)nc3CCC12` (stereo not drawn) [Example 22] showed a negative logarithm of the IC50 (pIC50) of 8.05.
Molecule `CC(C)(O)C(=O)N1CCC2(S(=O)(=O)c3ccccc3)c3ccc(C(F)(C(F)(F)F)C(F)(F)F)nc3CCC12` (stereo not drawn) [Example 17] showed a negative logarithm of the IC50 (pIC50) of 7.35.
For `O=C(O)[C@H]1CC[C@H](C(=O)N2CCC3(S(=O)(=O)c4cccc(F)c4)c4ccc(C(F)(C(F)(F)F)C(F)(F)F)nc4CCC23)CC1` (stereo partly drawn) [Example 24], the negative logarithm of the IC50 (pIC50) was 7.82. Compared with the last molecule, the pIC50 is 0.47 log units higher.
With `CC(C)(O)CN1C(=O)[C@H](F)C[C@H]1C(=O)N1CCC2(S(=O)(=O)c3ccccc3)c3ccc(C(F)(C(F)(F)F)C(F)(F)F)nc3CCC12` (stereo partly drawn) [Example 53], the pIC50 is 7.74.
Molecule `CC(C)(O)CN1C(=O)[C@@H]2C[C@@H]2[C@H]1C(=O)N1CCC2(S(=O)(=O)c3cccc(F)c3)c3ccc(C(F)(C(F)(F)F)C(F)(F)F)nc3CCC12` (stereo partly drawn) [Example 49] gave a negative-log IC50 (pIC50) of 7.74.
To `N#CCCN1C(=O)CC[C@H]1C(=O)N1CCC2(S(=O)(=O)c3cccc(F)c3)c3ccc(C(F)(C(F)(F)F)C(F)(F)F)nc3CCC12` (stereo partly drawn) [Example 21] belongs 7.96; to `O=C1N[C@H](C(=O)N2CCC3(S(=O)(=O)c4cccc(F)c4)c4cnc(C(F)(C(F)(F)F)C(F)(F)F)cc4CCC23)[C@H]2C[C@@H]12` (stereo partly drawn) [Example 35], 5.48; to `N#CCCN1C(=O)CC[C@H]1C(=O)N1CCC2(S(=O)(=O)c3ccc(F)cc3)c3ccc(OCc4c(Cl)cccc4Cl)nc3CCC12` (single isomer, unassigned) [Example 39], 7.82.
As to `CC(C)(O)CN1C(=O)CCN1C(=O)N1CCC2(S(=O)(=O)c3ccccc3)c3ccc(C(F)(C(F)(F)F)C(F)(F)F)nc3CCC12` (stereo not drawn) [Example 58], the negative logarithm of the IC50 (pIC50) was 7.92.
As for `[2H]C([2H])([2H])N1C(=O)[C@H](F)C[C@H]1C(=O)N1CCC2(S(=O)(=O)c3ccc(F)cc3)c3ncc(C(F)(C(F)(F)F)C(F)(F)F)cc3CCC12` (stereo partly drawn) [Example 2], the pIC50 was 7.16.
`C[C@H]1C[C@H](C(=O)O)CC[C@H]1C(=O)N1CCC2(S(=O)(=O)c3cccc(F)c3)c3cnc(C(F)(C(F)(F)F)C(F)(F)F)cc3CCC12` (stereo partly drawn) [Example 27] showed a pIC50 of 7.68.
Take `O=C([C@@H]1C[C@@H](F)C(=O)N1CCO)N1CCC2(S(=O)(=O)c3ccc(F)cc3)c3ncc(C(F)(C(F)(F)F)C(F)(F)F)cc3CCC12` (single isomer, unassigned) [Example 36]: the pIC50 is 6.96.
Take `CC(C)(O)CN1C(=O)[C@@H]2C[C@@H]2[C@H]1C(=O)N1CCC2(S(=O)(=O)c3cccc(F)c3)c3cnc(C(F)(C(F)(F)F)C(F)(F)F)cc3CCC12` (stereo partly drawn) [Example 52]: the pIC50 was 5.74.
For the molecule `[2H]C([2H])([2H])N1C(=O)[C@H](F)C[C@H]1C(=O)N1CCC2(S(=O)(=O)c3cccc(F)c3)c3ccc(C(F)(C(F)(F)F)C(F)(F)F)nc3CCC12` (stereo partly drawn) [Example 63], the negative logarithm of the IC50 (pIC50) was 7.89.
Take `N#CCCN1C(=O)CC[C@H]1C(=O)N1CCC2(S(=O)(=O)c3cccc(F)c3)c3cnc(C(F)(C(F)(F)F)C(F)(F)F)cc3CCC12` (stereo partly drawn) [Example 14]: the negative logarithm of the IC50 (pIC50) is 8.40.
Regarding `O=C(O)[C@H]1CC[C@H](C(=O)N2CCC3(S(=O)(=O)c4ccc(F)cc4)c4ccc(C(F)(C(F)(F)F)C(F)(F)F)nc4CCC23)CC1` (stereo partly drawn) [Example 33], the pIC50 was 8.10.
As for `O=C([C@@H]1CCC(=O)N1Cc1ccc(F)cc1)N1CCC2(S(=O)(=O)c3ccc(F)cc3)c3ncc(C(F)(C(F)(F)F)C(F)(F)F)cc3CCC12` (stereo partly drawn) [Example 3], the pIC50 was 7.21. Against the preceding molecule, the pIC50 is 0.89 log units lower.
`C[C@H]1C[C@H](C(N)=O)CC[C@H]1C(=O)N1CCC2(S(=O)(=O)c3ccc(F)cc3)c3ncc(C(F)(C(F)(F)F)C(F)(F)F)cc3CCC12` (single isomer, unassigned) [Example 59]: the pIC50 was 6.23.
